From patent US10377753B2, “Substituted 4-azaindoles and their use as GluN2B receptor modulators” (Janssen Pharmaceutica NV, priority 2015, dated 2019)

Biological target: cloned human NR1/NR2B ion channels (Homo sapiens (Human), UniProt Q05586+Q13224)
Assay: HNR2BC: effects of test articles on cloned human NR1/NR2B ion channels expressed in mammalian cells (FLIPR calcium flux)
Format: cell-based
Conditions: cloned human NR1/NR2B ion channels, Table 5
Outline: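 Compounds were added to dye-loaded cells for 5 min with fluorescence monitored for agonism, followed by co-agonists (glutamate ~EC80, glycine 10 μM saturating) for 5 min. Cells stably expressed inducible human NR1/NR2B, and the buffer was pH 7.4. The FLIPR Ca2+ flux signal was normalized against control wells.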

cloned human NR1/NR2B ion channels, sequence (Q13224 27-1484, other chains not shown): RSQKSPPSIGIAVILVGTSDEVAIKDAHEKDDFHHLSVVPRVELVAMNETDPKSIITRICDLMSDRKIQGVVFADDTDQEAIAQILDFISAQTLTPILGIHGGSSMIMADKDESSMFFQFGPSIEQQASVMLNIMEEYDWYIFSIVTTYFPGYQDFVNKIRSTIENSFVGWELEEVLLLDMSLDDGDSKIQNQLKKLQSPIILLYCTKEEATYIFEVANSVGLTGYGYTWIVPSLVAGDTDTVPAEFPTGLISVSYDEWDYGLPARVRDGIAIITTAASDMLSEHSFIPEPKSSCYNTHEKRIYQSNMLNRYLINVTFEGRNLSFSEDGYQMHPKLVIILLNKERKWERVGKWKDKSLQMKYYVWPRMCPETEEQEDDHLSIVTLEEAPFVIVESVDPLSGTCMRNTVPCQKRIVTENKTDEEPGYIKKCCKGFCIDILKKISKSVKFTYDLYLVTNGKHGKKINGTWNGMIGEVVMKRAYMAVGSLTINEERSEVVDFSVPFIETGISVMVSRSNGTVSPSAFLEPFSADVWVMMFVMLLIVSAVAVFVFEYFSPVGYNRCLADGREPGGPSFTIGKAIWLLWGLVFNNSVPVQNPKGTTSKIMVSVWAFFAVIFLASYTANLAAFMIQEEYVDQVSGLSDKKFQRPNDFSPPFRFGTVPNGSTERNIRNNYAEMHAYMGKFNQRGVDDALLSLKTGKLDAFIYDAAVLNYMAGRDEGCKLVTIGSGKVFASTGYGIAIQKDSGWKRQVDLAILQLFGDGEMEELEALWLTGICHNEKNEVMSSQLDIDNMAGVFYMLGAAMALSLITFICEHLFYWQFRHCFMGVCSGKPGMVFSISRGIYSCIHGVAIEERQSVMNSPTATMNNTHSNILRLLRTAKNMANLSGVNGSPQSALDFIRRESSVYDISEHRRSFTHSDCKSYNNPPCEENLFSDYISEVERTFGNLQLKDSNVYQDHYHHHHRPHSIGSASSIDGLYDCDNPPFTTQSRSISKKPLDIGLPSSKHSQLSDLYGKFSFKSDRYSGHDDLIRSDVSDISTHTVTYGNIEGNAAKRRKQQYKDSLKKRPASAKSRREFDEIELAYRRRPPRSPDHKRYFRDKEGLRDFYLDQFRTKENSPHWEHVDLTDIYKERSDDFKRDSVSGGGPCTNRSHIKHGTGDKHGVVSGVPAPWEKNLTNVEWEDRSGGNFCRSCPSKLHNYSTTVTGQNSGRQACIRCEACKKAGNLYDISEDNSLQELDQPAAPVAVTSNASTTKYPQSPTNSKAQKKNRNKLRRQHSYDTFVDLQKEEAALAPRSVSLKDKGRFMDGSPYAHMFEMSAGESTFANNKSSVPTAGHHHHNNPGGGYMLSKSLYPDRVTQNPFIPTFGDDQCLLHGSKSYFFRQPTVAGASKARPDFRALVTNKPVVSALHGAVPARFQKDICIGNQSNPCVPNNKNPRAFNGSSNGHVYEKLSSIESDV

SMILES | IC50 [nM] | pIC50
O=C(Cn1cc(F)c2ncc(-c3cccc(Cl)c3)cc21)N1CCC1 [Example 478, 1-(Azetidin-1-yl)-2-[6-(3-chlorophenyl)-3-fluoro-pyrrolo[3,2-b]pyridin-1-yl]ethanone] | 39.8 | –
O=C(Cn1cc(F)c2ncc(-c3cccc(Cl)c3F)cc21)N1CCC1 [Example 479, 1-(Azetidin-1-yl)-2-[6-(3-chloro-2-fluoro-phenyl)-3-fluoro-pyrrolo[3,2-b]pyridin-1-yl]ethanone] | 25.1 | –
Cc1c(F)ccc(-c2cnc3c(F)cn(CC(=O)N4CCC4)c3c2)c1F [Example 480, 1-(Azetidin-1-yl)-2-[6-(2,4-difluoro-3-methyl-phenyl)-3-fluoro-pyrrolo[3,2-b]pyridin-1-yl]ethanone] | 39.8 | –
O=C(Cn1cc(F)c2ncc(-c3ccc(F)c(Cl)c3)cc21)N1CCC1 [Example 481, 1-(Azetidin-1-yl)-2-[6-(3-chloro-4-fluoro-phenyl)-3-fluoro-pyrrolo[3,2-b]pyridin-1-yl]ethanone] | 25.1 | –
O=C(Cn1cc(F)c2ncc(-c3ccccc3)cc21)N1CC(F)C1 [Example 482, 1-(3-Fluoroazetidin-1-yl)-2-(3-fluoro-6-phenyl-pyrrolo[3,2-b]pyridin-1-yl)ethanone] | 15.8 | –
Cc1cccc(-c2cnc3c(F)cn(CC(=O)N4CC(F)C4)c3c2)c1F [Example 483, 1-(3-Fluoroazetidin-1-yl)-2-[3-fluoro-6-(2-fluoro-3-methyl-phenyl)pyrrolo[3,2-b]pyridin-1-yl]ethanone] | 63.1 | –
O=C(Cn1cc(F)c2ncc(-c3cccc(C(F)(F)F)c3)cc21)N1CC(F)C1 [Example 484, 1-(3-Fluoroazetidin-1-yl)-2-[3-fluoro-6-[3-(trifluoromethyl)phenyl]pyrrolo[3,2-b]pyridin-1-yl]ethanone] | 12.6 | –
O=C(Cn1cc(F)c2ncc(-c3cccc(C(F)(F)F)c3F)cc21)N1CC(F)C1 [Example 485, 1-(3-Fluoroazetidin-1-yl)-2-[3-fluoro-6-[2-fluoro-3-(trifluoromethyl)phenyl]pyrrolo[3,2-b]pyridin-1-yl]ethanone] | 39.8 | –
O=C(Cn1cc(F)c2ncc(-c3ccc(F)c(F)c3F)cc21)N1CC(F)C1 [Example 486, 1-(3-Fluoroazetidin-1-yl)-2-[3-fluoro-6-(2,3,4-trifluorophenyl)pyrrolo[3,2-b]pyridin-1-yl]ethanone] | 25.1 | –
O=C(Cn1cc(F)c2ncc(-c3cc(F)cc(F)c3)cc21)N1CC(F)C1 [Example 487, 2-[6-(3,5-Difluorophenyl)-3-fluoro-pyrrolo[3,2-b]pyridin-1-yl]-1-(3-fluoroazetidin-1-yl)ethanone] | 50.1 | –
Cc1c(F)ccc(-c2cnc3c(F)cn(CC(=O)N4CC(F)C4)c3c2)c1F [Example 488, 2-[6-(2,4-Difluoro-3-methyl-phenyl)-3-fluoro-pyrrolo[3,2-b]pyridin-1-yl]-1-(3-fluoroazetidin-1-yl)ethanone] | 15.8 | –
O=C(Cn1cc(F)c2ncc(-c3cccc(Cl)c3)cc21)N1CC(F)C1 [Example 489, 2-[6-(3-Chlorophenyl)-3-fluoro-pyrrolo[3,2-b]pyridin-1-yl]-1-(3-fluoroazetidin-1-yl)ethanone] | – | 8.0
O=C(Cn1cc(F)c2ncc(-c3cccc(Cl)c3F)cc21)N1CC(F)C1 [Example 490, 2-[6-(3-Chloro-2-fluoro-phenyl)-3-fluoro-pyrrolo[3,2-b]pyridin-1-yl]-1-(3-fluoroazetidin-1-yl)ethanone] | 20 | –
CCc1cccc(-c2cnc3c(F)cn(CC(=O)N4CC(F)C4)c3c2)c1 [Example 491, 2-[6-(3-Ethylphenyl)-3-fluoro-pyrrolo[3,2-b]pyridin-1-yl]-1-(3-fluoroazetidin-1-yl)ethanone] | 15.8 | –
O=C(Cn1cc(F)c2ncc(-c3cccc(F)c3)cc21)N1CC(F)C1 [Example 492, 1-(3-Fluoroazetidin-1-yl)-2-[3-fluoro-6-(3-fluorophenyl)pyrrolo[3,2-b]pyridin-1-yl]ethanone] | 25.1 | –
CN(C)C(=O)Cn1cc(F)c2ncc(-c3ccccc3F)cc21 [Example 493, 2-[3-Fluoro-6-(2-fluorophenyl)pyrrolo[3,2-b]pyridin-1-yl]-N,N-dimethyl-acetamide] | 25.1 | –
Cc1cccc(-c2cnc3c(F)cn(CC(=O)N(C)C)c3c2)c1F [Example 494, 2-[3-Fluoro-6-(2-fluoro-3-methyl-phenyl)pyrrolo[3,2-b]pyridin-1-yl]-N,N-dimethyl-acetamide] | 316 | –
CN(C)C(=O)Cn1cc(F)c2ncc(-c3ccccc3)cc21 [Example 495, 2-(3-Fluoro-6-phenyl-pyrrolo[3,2-b]pyridin-1-yl)-N,N-dimethyl-acetamide] | 12.6 | –
Cc1cccc(-c2cnc3c(F)cn(CC(=O)N(C)C)c3c2)c1 [Example 496, 2-[3-Fluoro-6-(m-tolyl)pyrrolo[3,2-b]pyridin-1-yl]-N,N-dimethyl-acetamide] | 79.4 | –
O=C(Cn1cc(F)c2ncc(-c3ccccc3)cc21)N1CCC1 [Example 497, 1-(Azetidin-1-yl)-2-(3-fluoro-6-phenyl-pyrrolo[3,2-b]pyridin-1-yl)ethanone] | 31.6 | –
CCc1cccc(-c2cnc3c(F)cn(CC(=O)N4CCC4)c3c2)c1 [Example 498, 1-(Azetidin-1-yl)-2-[6-(3-ethylphenyl)-3-fluoro-pyrrolo[3,2-b]pyridin-1-yl]ethanone] | 79.4 | –
CN(C)C(=O)Cn1cc(F)c2ncc(-c3cccc(C(F)(F)F)c3)cc21 [Example 499, 2-[3-Fluoro-6-[3-(trifluoromethyl)phenyl]pyrrolo[3,2-b]pyridin-1-yl]-N,N-dimethyl-acetamide] | 25.1 | –
CN(C)C(=O)Cn1cc(F)c2ncc(-c3cccc(C(F)(F)F)c3F)cc21 [Example 500, 2-[3-Fluoro-6-[2-fluoro-3-(trifluoromethyl)phenyl]pyrrolo[3,2-b]pyridin-1-yl]-N,N-dimethyl-acetamide] | 31.6 | –
CN(C)C(=O)Cn1cc(F)c2ncc(-c3ccc(F)c(F)c3F)cc21 [Example 501, 2-[3-Fluoro-6-(2,3,4-trifluorophenyl)pyrrolo[3,2-b]pyridin-1-yl]-N,N-dimethyl-acetamide] | 39.8 | –
Cc1c(F)ccc(-c2cnc3c(F)cn(CC(=O)N(C)C)c3c2)c1F [Example 502, 2-[6-(2,4-Difluoro-3-methyl-phenyl)-3-fluoro-pyrrolo[3,2-b]pyridin-1-yl]-N,N-dimethyl-acetamide] | 39.8 | –
CN(C)C(=O)Cn1cc(F)c2ncc(-c3cccc(Cl)c3)cc21 [Example 503, 2-[6-(3-Chlorophenyl)-3-fluoro-pyrrolo[3,2-b]pyridin-1-yl]-N,N-dimethyl-acetamide] | 15.8 | –
CN(C)C(=O)Cn1cc(F)c2ncc(-c3ccc(F)c(Cl)c3)cc21 [Example 504, 2-[6-(3-Chloro-4-fluoro-phenyl)-3-fluoro-pyrrolo[3,2-b]pyridin-1-yl]-N,N-dimethyl-acetamide] | 12.6 | –
CCc1cccc(-c2cnc3c(F)cn(CC(=O)N(C)C)c3c2)c1 [Example 505, 2-[6-(3-Ethylphenyl)-3-fluoro-pyrrolo[3,2-b]pyridin-1-yl]-N,N-dimethyl-acetamide] | 20 | –
O=C(Cn1cc(F)c2ncc(-c3cccc(F)c3)cc21)N1CCC1 [Example 506, 1-(Azetidin-1-yl)-2-[3-fluoro-6-(3-fluorophenyl)pyrrolo[3,2-b]pyridin-1-yl]ethanone] | 15.8 | –
